{
  "source": "patent US12329736B2",
  "about": "“Carboxylate ligand modified ferric iron hydroxide compositions for use in the treatment or prevention of iron deficiency associated with liver diseases” (Nemysis Ltd., priority 2020, dated 2025)",
  "conditions": "Wistar rats",
  "note": "Entries after “also recorded” stand apart in the source; their conditions may differ.",
  "description": "5-6 week old Wistar rats (n=72; 36 female and 36 male) were housed in harmonious social groups (2-3 animals per cage and sex) in a light- and temperature-controlled room with ad libitum access to standard pellet diet and water. Rats were acclimatised for 7 days for male rats and 14 days for female rats, prior to treatment commencement.\nAnimals were gavaged for 28 days (n=36; 18 female and 18 male) or 90 days (n=36; 18 female and 18 male). Following necropsy, livers were harvested, flash frozen in liquid nitrogen and stored at −80° C. until further analysis.\nLivers were thawed at room temperature, and a sample of approximately 800 mg was cut out, cleaned from any fat and weighed on a balance accurate to 0.0001 g. Weighed samples were digested in concentrated HNO3 (Nitric acid ≥65%, 84380-2.5L-M, Merck) and H2O2 (Hydrogen peroxide solution, 16911-1L-F, Sigma-Aldrich) at a 5:1 ratio. Samples were digested at room temperature for 24 h and if necessary at 40° C. for another 24 h to allow complete digestion. Following complete digestion samples were diluted 1:4 in UHP water to achieve a final HNO3 concentration of 6-8%. Total elemental analysis for iron was carried out on a Jobin Yvon Horiba Ultima 2C ICP-OES (Instrument SA, Longjumeau, France), equipped with a concentric nebulizer and cyclonic spray chamber. Analysis was by peak profile with a window size of 0.025 nm with 21 increments per profile and an integration time of 0.5 seconds per increment. Analytical line was 259.940 nm. Samples and blanks were analysed with iron standards (0-20 mg/L) prepared in 6-8% HNO3, using a 1000 mg/L Fe ICP solution. Pooled-sample standards (0-20 mg/L) were prepared, using a pool of all final digests, to allow detection of possible matrix effects. Each sample/blank/standard was analysed in triplicates and the average value used for the calculations. The sample induction system (sample tubing, nebuliser and spray chamber) was thoroughly flushed between samples, blanks and standards.\nStatistical analyses were performed in GraphPad Prism 6. One-way ANOVA, followed by Tukey's multiple comparison's test, was used to assess the treatment effect, irrespective of the length of treatment. Two-way ANOVA was used to assess the effects of time (i.e. treatment length), treatment and the time x treatment interactions, followed by Bonferroni's multiple comparisons test. Two-way ANOVA was also used to assess the effect of sex, treatment and the sex x treatment interaction. P values <0.05 were considered significant in all analyses. Data are presented as means±SDs.",
  "data": [
    {"smiles": "O=S(=O)([O-])[O-].[Fe+2]", "note": "[FeSO4, ferrous sulphate]", "values": [
      {"measurement": "Accumulation of liver iron over time with repeated oral dosing", "setting": "28 days versus 90 days of oral administration, FIG. 1B", "value": "iron seems to accumulate over time; also recorded: does accumulate"},
      {"measurement": "Total iron content in liver samples versus vehicle control group", "setting": "daily oral gavage 28 or 90 days, IHAT 28.5 mg iron/kg, FeSO4 20.00 mg iron/kg, FIG. 1A", "value": "significantly increased; also recorded: significant difference"}
    ]}
  ]
}
